Entries after “also recorded” stand apart in the source; their conditions may differ.
Columns and labels:
A549 cells = test: Cell membrane damage (LDH leakage) assay; assay type: cell-based, Human; details: 1–5000 μg/mL, 24 h
Method: Human adenocarcinomic alveolar epithelial (A549) cells were obtained from the Korea Cell Line Bank (Seoul, Korea). Cells were grown in RPMI 1640 medium (Thermo Fisher Scientific, Waltham, MA, USA), containing 10% heat-inactivated fetal bovine serum (Thermo Fisher Scientific, Waltham, MA, USA) and 1% penicillin-streptomycin (Thermo Fisher Scientific, Waltham, MA, USA) under standard cell culture conditions (37 °C, 5% CO2, and 90% humidity).
A549 cells (1 × 10^4 cells) were incubated in 96-well plates overnight, and various concentrations (1, 10, 100, 1000, and 5000 μg/mL) of the eight selected chemicals were added to the cell culture medium. After 24 h of incubation, cell morphology was observed by optical microscopy, and cell viability was evaluated using EZ-Cytox kit (DoGenBio, Seoul, Korea) by quantifying purple formazan crystals. The membrane integrity was examined using an EZ-lactate dehydrogenase (LDH) kit (DoGenBio, Seoul, Korea) to measure the LDH level released from the cytosol into the culture medium. Absorbance was measured using a microplate reader (Tecan, Salzburg, Austria) at a wavelength of 450 nm.

Sprague-Dawley rats = test: Bronchoalveolar lavage fluid (BALF) analysis after acute inhalation; assay type: in vivo, rat
Method: The inhalation aerosols of the DGH solutions were generated using an atomizer with a clean air flow of 250 L/min. […] In the acute toxicity test, all the rats in each group were sacrificed immediately after exposure. Temperature, humidity, air flow, and air pressure were monitored during the exposure using a Model VT3-X15 environmental controller (Sibata, Saitama, Japan). The concentration of DGH was analyzed by sampling the chamber air using a SIP-32L (Sibata, Saitama, Japan) and measuring the weight of the membranes (T60A20, Φ55). The mass median aerodynamic diameter (MMAD) and geometric standard deviation (GSD) of DGH in the exposure chamber were measured using an Andersen cascade impactor (AN-200, Sibata, Saitama, Japan).
BALF was obtained from the right lung by lavage (twice) with 3 mL phosphate buffered saline (PBS, pH 7.4, magnesium, and calcium free). The BALF samples were centrifuged (1500 rpm, 4 °C, 10 min) and the cell-free supernatant of the first lavage was used for the determination of LDH, total protein, and inflammatory cytokine levels. LDH activity was measured using the EZ-LDH kit (DoGenBio, Seoul, Korea). Total protein content was quantified using a BCA protein assay kit (iNtRON Biotechnology, Seoul, Korea). To evaluate the inflammatory cytokine levels in BALF, tumor necrosis factor-alpha (TNF-α), interleukin-6 (IL-6), interleukin-1 beta (IL-1β), […], and transforming growth factor-beta 1 (TGF-β1) were determined using a Quantikine® enzyme-linked immunosorbent assay kit (R&D Systems, Minneapolis, MN, USA), according to the manufacturer’s instructions. Cells in all lavages were resuspended in PBS, and the total cell count in BALF was quantified using a Vi-Cell® XR analyzer (Beckman Coulter, Brea, CA, USA). Differential cell counts were performed on cytospin preparations (Shadon, Pittsburgh, PA, USA), and the cells were stained with Diff-Quick (Fisher Scientific, Swedesboro, NJ, USA). Polymorphonuclear leukocytes (PMNs) in the BALF were counted using light microscopy (Olympus, Tokyo, Japan).

Sprague-Dawley (SD) rats = test: Histopathology of nasal cavity and lung after acute inhalation; assay type: in vivo, rat; details: High 68 mg/m^3, 4 h; for Lung: Cell infiltration, terminal bronchiole/alveolar duct, neutrophils/macrophages / Lung: Intraluminal cell debris, terminal bronchiole/alveolar duct / Lung: No specific lesion / Nasal cavity Level 1: Acute inflammation with necrosis, focal / Nasal cavity Level 1: Cell infiltration, lymphocytes, focal / Nasal cavity Level 1: No specific lesion / Nasal cavity Level 2: Acute inflammation with necrosis, focal / Nasal cavity Level 2: Cell infiltration, lymphocytes, focal / Nasal cavity Level 2: No specific lesion / Nasal cavity Level 3: Cell infiltration, lymphocytes, focal / Nasal cavity Level 3: No specific lesion / Nasal cavity Level 4: Cell infiltration, lymphocytes, focal / Nasal cavity Level 4: No specific lesion: cases (percentage) of 5 examined; for Lung: Cell infiltration, terminal bronchiole/alveolar duct, neutrophils/macrophages; Grade: minimal / Lung: Intraluminal cell debris, terminal bronchiole/alveolar duct; Grades: minimal / Nasal cavity Level 1: Acute inflammation with necrosis, focal; Grade: mild / Nasal cavity Level 1: Acute inflammation with necrosis, focal; Grade: minimal / Nasal cavity Level 1: Cell infiltration, lymphocytes, focal; Grade: minimal / Nasal cavity Level 2: Acute inflammation with necrosis, focal; Grade: mild / Nasal cavity Level 2: Acute inflammation with necrosis, focal; Grade: minimal / Nasal cavity Level 2: Cell infiltration, lymphocytes, focal; Grade: minimal / Nasal cavity Level 3: Cell infiltration, lymphocytes, focal; Grade: minimal / Nasal cavity Level 4: Cell infiltration, lymphocytes, focal; Grade: minimal: number of cases
Method: The inhalation aerosols of the DGH solutions were generated using an atomizer with a clean air flow of 250 L/min. For the acute inhalation exposure study, the rats were exposed to 7.8 mg/m^3, 23 mg/m^3, and 70 mg/m^3 DGH for 4 h in the low, middle, and high exposure groups, respectively, and the control rats were exposed to clean air. In the acute toxicity test, all the rats in each group were sacrificed immediately after exposure. Temperature, humidity, air flow, and air pressure were monitored during the exposure using a Model VT3-X15 environmental controller (Sibata, Saitama, Japan). The concentration of DGH was analyzed by sampling the chamber air using a SIP-32L (Sibata, Saitama, Japan) and measuring the weight of the membranes (T60A20, Φ55). The mass median aerodynamic diameter (MMAD) and geometric standard deviation (GSD) of DGH in the exposure chamber were measured using an Andersen cascade impactor (AN-200, Sibata, Saitama, Japan).
After the inhalation of DGH for 4 h, the animals were euthanized. After gross examination, the left lung and nasal cavity of the rats in the control and high-exposure groups were fixed in 10% neutral buffered formalin. The nasal cavity was decalcified with a decalcification solution and then cross-sectioned into four levels as follows: level 1 (posterior part of the upper incisors), level 2 (incisive papilla), level 3 (second palatine crest), level 4 (first upper molar teeth). Following routine tissue processing, the tissues were embedded in paraffin and sectioned into 3 μm thick sections. The tissue sections were stained with hematoxylin and eosin (H&E), and then examined under a light microscope (Olympus BX41, Tokyo, Japan). The lesions were graded according to severity by pathologists.

[1] = male rats, exposure groups, 4 h
[2] = rats, 8.6–68 mg/m^3, 4 h, vs control

`CCCCCCCCCCCCN=C(N)N.Cl` [DGH, Dodecylguanidine hydrochloride] was tested, and the “Cell membrane damage (LDH leakage)” value (A549 cells) was “significant dose-dependent damage to the cell membrane”, the “IL-6 level in BALF compared to control groups” value (Sprague-Dawley rats; [1]) was “about seven times” and the “MIP-2 level in BALF compared to control groups” value (Sprague-Dawley rats; [1]) was “about five times”. For the same compound, the “Increase of ratio of PMNs in BALF” value (Sprague-Dawley rats; male rats, high 68 mg/m^3, 4 h) was over 204 fold, the “Increase of ratio of PMNs in BALF” value (Sprague-Dawley rats; male rats, middle 21.3 mg/m^3, 4 h) was “more than 38.7 fold” and the “Cytokines (MIP-2, TGF-β1, IL-1β, TNF-α, IL-6) in BALF” value (Sprague-Dawley rats; rats, 8.6–68 mg/m^3, 4 h) was “increased in a concentration-dependent manner”. The “LDH in BALF” value (Sprague-Dawley rats; [2]) was “increased in a concentration-dependent manner; also recorded: significantly increased in all the exposed groups”, the “PMNs in BALF” value (Sprague-Dawley rats; [2]) was “increased in a concentration-dependent manner; also recorded: significant increase” and the “Total protein in BALF” value (Sprague-Dawley rats; [2]) was “significantly increased in all the exposed groups”. The “Lung: Cell infiltration, terminal bronchiole/alveolar duct, neutrophils/macrophages” value (Sprague-Dawley (SD) rats; female) was 3(60.0), the “Lung: Intraluminal cell debris, terminal bronchiole/alveolar duct” value (Sprague-Dawley (SD) rats; female) was 1(20.0) and the “Lung: No specific lesion” value (Sprague-Dawley (SD) rats; female) was 1(20.0). For the same compound, the “Nasal cavity Level 1: Acute inflammation with necrosis, focal” value (Sprague-Dawley (SD) rats; female) was 1(20.0), the “Nasal cavity Level 1: Cell infiltration, lymphocytes, focal” value (Sprague-Dawley (SD) rats; female) was 0(0.00) and the “Nasal cavity Level 1: No specific lesion” value (Sprague-Dawley (SD) rats; female) was 4(80.0). The “Nasal cavity Level 2: Acute inflammation with necrosis, focal” value (Sprague-Dawley (SD) rats; female) was 0(0.00), the “Nasal cavity Level 2: Cell infiltration, lymphocytes, focal” value (Sprague-Dawley (SD) rats; female) was 0(0.00) and the “Nasal cavity Level 2: No specific lesion” value (Sprague-Dawley (SD) rats; female) was 5(100). The “Nasal cavity Level 3: Cell infiltration, lymphocytes, focal” value (Sprague-Dawley (SD) rats; female) was 1(20.0), the “Nasal cavity Level 3: No specific lesion” value (Sprague-Dawley (SD) rats; female) was 4(80.0) and the “Nasal cavity Level 4: Cell infiltration, lymphocytes, focal” value (Sprague-Dawley (SD) rats; female) was 2(40.0). For the same compound, the “Nasal cavity Level 4: No specific lesion” value (Sprague-Dawley (SD) rats; female) was 3(60.0), the “Lung: Cell infiltration, terminal bronchiole/alveolar duct, neutrophils/macrophages; Grade: minimal” value (Sprague-Dawley (SD) rats; female) was 3 and the “Lung: Intraluminal cell debris, terminal bronchiole/alveolar duct; Grades: minimal” value (Sprague-Dawley (SD) rats; female) was 1. The “Nasal cavity Level 1: Acute inflammation with necrosis, focal; Grade: mild” value (Sprague-Dawley (SD) rats; female) was 0, the “Nasal cavity Level 1: Acute inflammation with necrosis, focal; Grade: minimal” value (Sprague-Dawley (SD) rats; female) was 1 and the “Nasal cavity Level 1: Cell infiltration, lymphocytes, focal; Grade: minimal” value (Sprague-Dawley (SD) rats; female) was 0. For the same compound, the “Nasal cavity Level 2: Acute inflammation with necrosis, focal; Grade: mild” value (Sprague-Dawley (SD) rats; female) was 0, the “Nasal cavity Level 2: Acute inflammation with necrosis, focal; Grade: minimal” value (Sprague-Dawley (SD) rats; female) was 0 and the “Nasal cavity Level 2: Cell infiltration, lymphocytes, focal; Grade: minimal” value (Sprague-Dawley (SD) rats; female) was 0. For the same compound, the “Nasal cavity Level 3: Cell infiltration, lymphocytes, focal; Grade: minimal” value (Sprague-Dawley (SD) rats; female) was 1, the “Nasal cavity Level 4: Cell infiltration, lymphocytes, focal; Grade: minimal” value (Sprague-Dawley (SD) rats; female) was 2 and the “Lung: Cell infiltration, terminal bronchiole/alveolar duct, neutrophils/macrophages” value (Sprague-Dawley (SD) rats; male) was 5(100). For the same compound, the “Lung: Intraluminal cell debris, terminal bronchiole/alveolar duct” value (Sprague-Dawley (SD) rats; male) was 1(20.0), the “Lung: No specific lesion” value (Sprague-Dawley (SD) rats; male) was 0(0.00) and the “Nasal cavity Level 1: Acute inflammation with necrosis, focal” value (Sprague-Dawley (SD) rats; male) was 1(20.0). For the same compound, the “Nasal cavity Level 1: Cell infiltration, lymphocytes, focal” value (Sprague-Dawley (SD) rats; male) was 0(0.00), the “Nasal cavity Level 1: No specific lesion” value (Sprague-Dawley (SD) rats; male) was 4(80.0) and the “Nasal cavity Level 2: Acute inflammation with necrosis, focal” value (Sprague-Dawley (SD) rats; male) was 1(20.0). The “Nasal cavity Level 2: Cell infiltration, lymphocytes, focal” value (Sprague-Dawley (SD) rats; male) was 0(0.00), the “Nasal cavity Level 2: No specific lesion” value (Sprague-Dawley (SD) rats; male) was 4(80.0) and the “Nasal cavity Level 3: Cell infiltration, lymphocytes, focal” value (Sprague-Dawley (SD) rats; male) was 2(40.0). For the same compound, the “Nasal cavity Level 3: No specific lesion” value (Sprague-Dawley (SD) rats; male) was 3(60.0), the “Nasal cavity Level 4: Cell infiltration, lymphocytes, focal” value (Sprague-Dawley (SD) rats; male) was 0(0.00) and the “Nasal cavity Level 4: No specific lesion” value (Sprague-Dawley (SD) rats; male) was 5(100). The “Lung: Cell infiltration, terminal bronchiole/alveolar duct, neutrophils/macrophages; Grade: minimal” value (Sprague-Dawley (SD) rats; male) was 5, the “Lung: Intraluminal cell debris, terminal bronchiole/alveolar duct; Grades: minimal” value (Sprague-Dawley (SD) rats; male) was 1 and the “Nasal cavity Level 1: Acute inflammation with necrosis, focal; Grade: mild” value (Sprague-Dawley (SD) rats; male) was 1. For the same compound, the “Nasal cavity Level 1: Acute inflammation with necrosis, focal; Grade: minimal” value (Sprague-Dawley (SD) rats; male) was 0, the “Nasal cavity Level 1: Cell infiltration, lymphocytes, focal; Grade: minimal” value (Sprague-Dawley (SD) rats; male) was 0 and the “Nasal cavity Level 2: Acute inflammation with necrosis, focal; Grade: mild” value (Sprague-Dawley (SD) rats; male) was 1. For the same compound, the “Nasal cavity Level 2: Acute inflammation with necrosis, focal; Grade: minimal” value (Sprague-Dawley (SD) rats; male) was 0, the “Nasal cavity Level 2: Cell infiltration, lymphocytes, focal; Grade: minimal” value (Sprague-Dawley (SD) rats; male) was 0 and the “Nasal cavity Level 3: Cell infiltration, lymphocytes, focal; Grade: minimal” value (Sprague-Dawley (SD) rats; male) was 2. For the same compound, the “Nasal cavity Level 4: Cell infiltration, lymphocytes, focal; Grade: minimal” value (Sprague-Dawley (SD) rats; male) was 0.

Reference: article PMC7560342, “In Vitro and In Vivo Evaluation of the Toxic Effects of Dodecylguanidine Hydrochloride” (Toxics, 2020)
